Results reported in ChEMBL document CHEMBL4699558, “Lead optimization of 8-(methylamino)-2-oxo-1,2-dihydroquinolines as bacterial type II topoisomerase inhibitors” (Bioorg Med Chem, 2020).
Values after ≈ are worked out from the molar mass of the structure shown.

Legend:
[1] = test system: Streptococcus pneumoniae; experiment: Antibacterial activity against genotype penicillin-resistant Streptococcus pneumoniae by CLSI method; format: functional
[2] = test system: Streptococcus anginosus; experiment: Antibacterial activity against Streptococcus anginosus ATCC 33397 by CLSI method; format: functional
[3] = test system: Enterococcus; experiment: Antibacterial activity against Vancomycin-resistant Enterococcus by CLSI method; format: functional
[4] = test system: Escherichia coli; experiment: Antibacterial activity against Escherichia coli ATCC 25922 by CLSI method; format: functional
[5] = test system: Enterococcus faecalis; experiment: Antibacterial activity against Enterococcus faecalis ATCC 29212 by CLSI method; format: functional
[6] = test system: Enterococcus faecium; experiment: Antibacterial activity against vancomycin-resistant Enterococcus faecium ATCC 51559 by CLSI method; format: functional
[7] = test system: Enterococcus faecalis; experiment: Antibacterial activity against vancomycin-resistant Enterococcus faecalis ATCC 51575 by CLSI method; format: functional
[8] = test system: Streptococcus pneumoniae; experiment: Antibacterial activity against Streptococcus pneumoniae ATCC 49619 by CLSI method; format: functional
[9] = test system: Staphylococcus aureus; experiment: Antibacterial activity against Methicillin-resistant Staphylococcus aureus by CLSI method; format: functional
[10] = target: DNA gyrase (Escherichia coli, UniProt P0AES4+P0AES6); experiment: Inhibition of Escherichia coli DNA gyrase by measuring supercoiling activity incubated for 60 mins by fluorescence based assay; format: protein-complex assay
[11] = test system: Staphylococcus aureus; experiment: Antibacterial activity against Staphylococcus aureus ATCC 29213 by CLSI method; format: functional
[12] = Inhibition of Escherichia coli topoisomerase IV by measuring relaxation activity incubated for 30 mins by fluorescence based assay
[13] = test system: Escherichia coli; experiment: Antibacterial activity against Escherichia coli ATCC 25922 in presence of PAbetaN by CLSI method; format: functional
[14] = test system: Enterococcus faecium; experiment: Antibacterial activity against Enterococcus faecium ATCC 35667 by CLSI method; format: functional
[15] = target: Voltage-gated inwardly rectifying potassium channel KCNH2 (Homo sapiens, UniProt Q12809); experiment: Inhibition of human ERG expressed in CHO cells by Q-patch clamp assay
[16] = Cytotoxicity against human HepG2 cells assessed as reduction in cell viability at 50 uM incubated for 48 hrs by CCK-8 assay; settings: HepG2 cells
[17] = test system: Staphylococcus aureus; experiment: Antibacterial activity against hospital-acquired Methicillin -resistant Staphylococcus aureus ATCC BAA-811 by CLSI method; format: functional
[18] = test system: Haemophilus influenzae; experiment: Antibacterial activity against Haemophilus influenzae ATCC 43095 by CLSI method; format: functional
[19] = Cytotoxicity against human HepG2 cells assessed as reduction in cell viability at 10 uM incubated for 48 hrs by CCK-8 assay; settings: HepG2 cells
[20] = test system: Staphylococcus aureus; experiment: Antibacterial activity against community-acquired Methicillin -resistant Staphylococcus aureus ATCC BAA-1556 by CLSI method; format: functional
[21] = target: DNA topoisomerase 2-alpha (Homo sapiens, UniProt P11388); experiment: Inhibition of human topoisomerase 2alpha; format: ADME
[22] = test system: Prevotella melaninogenica; experiment: Antibacterial activity against Prevotella melaninogenica JCM6325 by CLSI method; format: functional
[23] = test system: Bacteroides fragilis; experiment: Antibacterial activity against Bacteroides fragilis ATCC 25285 by CLSI method; format: functional
[24] = test system: Peptostreptococcus anaerobius; experiment: Antibacterial activity against Peptostreptococcus anaerobius ATCC 27337 by CLSI method; format: functional
[25] = test system: Porphyromonas gingivalis; experiment: Antibacterial activity against Porphyromonas gingivalis JCM8525 by CLSI method; format: functional
[26] = test system: Fusobacterium nucleatum; experiment: Antibacterial activity against Fusobacterium nucleatum JCM8532 by CLSI method; format: functional
[27] = test system: Clostridioides difficile; experiment: Antibacterial activity against Clostridioides difficile ATCC 700057 by CLSI method; format: functional

Sequence of DNA topoisomerase 2-alpha (P11388 whole entry): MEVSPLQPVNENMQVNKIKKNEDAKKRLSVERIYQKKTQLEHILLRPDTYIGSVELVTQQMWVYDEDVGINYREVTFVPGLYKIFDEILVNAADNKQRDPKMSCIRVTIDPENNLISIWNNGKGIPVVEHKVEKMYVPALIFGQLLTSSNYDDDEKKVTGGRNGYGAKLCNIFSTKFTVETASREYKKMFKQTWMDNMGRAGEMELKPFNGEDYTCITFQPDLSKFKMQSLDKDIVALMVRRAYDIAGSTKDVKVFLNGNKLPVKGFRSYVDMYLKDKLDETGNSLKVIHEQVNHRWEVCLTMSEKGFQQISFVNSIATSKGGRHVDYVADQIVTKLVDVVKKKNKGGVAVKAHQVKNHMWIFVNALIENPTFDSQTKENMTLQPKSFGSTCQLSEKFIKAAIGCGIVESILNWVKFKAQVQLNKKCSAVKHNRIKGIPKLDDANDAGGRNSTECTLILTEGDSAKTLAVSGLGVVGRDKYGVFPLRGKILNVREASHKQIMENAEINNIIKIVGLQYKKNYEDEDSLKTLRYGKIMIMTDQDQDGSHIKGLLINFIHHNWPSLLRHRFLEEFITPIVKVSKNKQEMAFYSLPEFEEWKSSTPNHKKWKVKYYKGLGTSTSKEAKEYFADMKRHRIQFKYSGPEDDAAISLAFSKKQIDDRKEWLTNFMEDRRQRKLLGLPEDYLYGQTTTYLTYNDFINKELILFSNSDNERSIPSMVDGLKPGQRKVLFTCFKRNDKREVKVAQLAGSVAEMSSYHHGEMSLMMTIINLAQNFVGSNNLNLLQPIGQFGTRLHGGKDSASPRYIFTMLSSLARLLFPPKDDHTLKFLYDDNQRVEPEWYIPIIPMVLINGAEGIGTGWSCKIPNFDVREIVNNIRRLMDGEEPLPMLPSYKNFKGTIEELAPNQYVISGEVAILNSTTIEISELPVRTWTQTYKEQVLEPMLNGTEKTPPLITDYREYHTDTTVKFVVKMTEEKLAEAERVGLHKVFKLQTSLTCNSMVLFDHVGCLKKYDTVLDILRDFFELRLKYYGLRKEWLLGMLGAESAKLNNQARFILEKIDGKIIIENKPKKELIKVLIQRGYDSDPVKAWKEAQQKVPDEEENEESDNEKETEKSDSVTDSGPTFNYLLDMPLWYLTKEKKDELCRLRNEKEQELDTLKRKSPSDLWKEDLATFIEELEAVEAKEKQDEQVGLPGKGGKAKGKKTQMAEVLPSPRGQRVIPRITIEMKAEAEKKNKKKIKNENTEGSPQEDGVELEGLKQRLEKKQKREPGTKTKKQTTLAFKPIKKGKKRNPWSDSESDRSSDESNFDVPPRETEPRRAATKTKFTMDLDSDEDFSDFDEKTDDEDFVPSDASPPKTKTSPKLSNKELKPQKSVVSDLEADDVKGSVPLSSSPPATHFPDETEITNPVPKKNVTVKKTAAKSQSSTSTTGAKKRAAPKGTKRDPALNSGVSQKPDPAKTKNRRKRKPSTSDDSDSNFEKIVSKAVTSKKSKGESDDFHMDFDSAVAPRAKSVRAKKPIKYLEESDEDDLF
Sequence of Voltage-gated inwardly rectifying potassium channel KCNH2 (Q12809 whole entry): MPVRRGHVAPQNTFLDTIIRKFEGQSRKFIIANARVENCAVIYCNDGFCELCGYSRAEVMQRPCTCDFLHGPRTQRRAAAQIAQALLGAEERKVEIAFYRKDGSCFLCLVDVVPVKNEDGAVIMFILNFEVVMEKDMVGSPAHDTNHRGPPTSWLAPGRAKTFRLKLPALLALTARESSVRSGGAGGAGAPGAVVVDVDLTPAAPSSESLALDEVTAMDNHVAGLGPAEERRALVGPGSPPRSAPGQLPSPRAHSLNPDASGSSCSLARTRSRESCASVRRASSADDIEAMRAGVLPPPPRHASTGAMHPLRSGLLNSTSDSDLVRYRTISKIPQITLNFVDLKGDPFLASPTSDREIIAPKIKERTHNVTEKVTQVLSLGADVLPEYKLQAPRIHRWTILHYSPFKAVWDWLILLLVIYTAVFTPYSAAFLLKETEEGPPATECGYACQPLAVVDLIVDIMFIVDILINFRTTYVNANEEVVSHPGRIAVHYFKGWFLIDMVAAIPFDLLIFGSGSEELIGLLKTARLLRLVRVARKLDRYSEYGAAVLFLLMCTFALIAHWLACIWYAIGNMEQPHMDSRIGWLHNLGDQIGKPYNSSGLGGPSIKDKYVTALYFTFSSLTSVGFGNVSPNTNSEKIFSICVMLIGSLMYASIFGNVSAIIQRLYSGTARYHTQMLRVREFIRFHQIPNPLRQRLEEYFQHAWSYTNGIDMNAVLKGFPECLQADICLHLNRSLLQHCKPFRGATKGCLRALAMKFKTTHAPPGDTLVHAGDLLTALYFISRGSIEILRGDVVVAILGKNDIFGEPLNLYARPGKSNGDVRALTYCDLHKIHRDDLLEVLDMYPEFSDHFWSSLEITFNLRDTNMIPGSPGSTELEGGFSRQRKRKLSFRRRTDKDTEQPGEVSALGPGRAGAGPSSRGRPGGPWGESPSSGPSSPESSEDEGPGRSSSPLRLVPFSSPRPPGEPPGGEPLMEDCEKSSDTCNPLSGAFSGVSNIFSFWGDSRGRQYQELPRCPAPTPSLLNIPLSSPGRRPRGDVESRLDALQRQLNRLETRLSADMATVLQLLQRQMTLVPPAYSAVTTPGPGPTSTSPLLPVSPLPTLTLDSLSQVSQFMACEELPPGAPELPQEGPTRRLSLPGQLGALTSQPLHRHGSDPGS

Compound | MIC50 [1] [µg/mL] | MIC90 [1] [µg/mL] | MIC50 [3] [µg/mL] | MIC90 [3] [µg/mL] | MIC [4] [µg/mL] | MIC50 [9] [µg/mL] | MIC90 [9] [µg/mL] | IC50 [10] [nM] | IC50 [12] [nM] | MIC [13] [µg/mL] | further results
C[C@@H](O)[C@H]1C(=O)N2C(C(=O)O)=C(S[C@@H]3CN[C@H](C(=O)N(C)C)C3)[C@H](C)[C@H]12 [MEROPENEM] | 0.5 (≈ 1.3 µM) | 1 (≈ 2.61 µM) |  |  |  |  |  |  |  |  | 
CN[C@H](CC(C)C)C(=O)N[C@H]1C(=O)N[C@@H](CC(N)=O)C(=O)N[C@H]2C(=O)N[C@H]3C(=O)N[C@H](C(=O)N[C@H](C(=O)O)c4cc(O)cc(O)c4-c4cc3ccc4O)[C@H](O)c3ccc(c(Cl)c3)Oc3cc2cc(c3O[C@@H]2O[C@H](CO)[C@@H](O)[C@H](O)[C@H]2O[C@H]2C[C@](C)(N)[C@H](O)[C@H](C)O2)Oc2ccc(cc2Cl)[C@H]1O [VANCOMYCIN] | 0.25 (≈ 0.173 µM) | 0.5 (≈ 0.345 µM) | > 128 | > 128 | > 128 | 1 (≈ 0.69 µM) | 2 (≈ 1.38 µM) |  |  |  | MIC [2]: 0.5 µg/mL (≈ 0.345 µM); MIC [5]: 2 µg/mL (≈ 1.38 µM); MIC [6]: > 128 µg/mL; MIC [7]: > 128 µg/mL; MIC [8]: 0.25 µg/mL (≈ 0.173 µM)
CCCCCCCCCC(=O)N[C@@H](Cc1c[nH]c2ccccc12)C(=O)N[C@H](CC(N)=O)C(=O)N[C@@H](CC(=O)O)C(=O)N[C@@H]1C(=O)NCC(=O)N[C@@H](CCCN)C(=O)N[C@@H](CC(=O)O)C(=O)N[C@H](C)C(=O)N[C@@H](CC(=O)O)C(=O)NCC(=O)N[C@H](CO)C(=O)N[C@@H]([C@H](C)CC(=O)O)C(=O)N[C@@H](CC(=O)c2ccccc2N)C(=O)O[C@@H]1C |  |  | 2 (≈ 1.23 µM) | 4 (≈ 2.47 µM) |  | 1 (≈ 0.617 µM) | 1 (≈ 0.617 µM) |  |  |  | 
CC1(C)S[C@@H]2[C@H](NC(=O)Cc3ccccc3)C(=O)N2[C@H]1C(=O)O [PENICILLIN G] | 2 (≈ 5.98 µM) | 4 (≈ 12 µM) |  |  |  |  |  |  |  |  | 
CNc1cc(F)cc2cc(C(=O)Nc3cnc(C(=O)O)nc3)c(=O)[nH]c12 |  |  |  |  | > 16 |  |  | 0.95 | 32.5 | > 16 | MIC [11]: > 16 µg/mL
C[C@H]1COc2c(N3CCN(C)CC3)c(F)cc3c(=O)c(C(=O)O)cn1c23.C[C@H]1COc2c(N3CCN(C)CC3)c(F)cc3c(=O)c(C(=O)O)cn1c23.O [LEVOFLOXACIN] | 2 | 2 | 8 | 128 |  | 16 | > 128 |  |  |  | 
CNc1cc(F)cc2c(O)c(C(=O)Nc3ccc(C(=O)NS(=O)(=O)N(C)C)cc3)c(=O)[nH]c12 |  |  |  |  | 1 (≈ 2.09 µM) |  |  | 2.66 | 127 | ≤ 0.015 | MIC [2]: 0.12 µg/mL (≈ 0.251 µM); MIC [14]: 0.03 µg/mL (≈ 0.0628 µM); MIC [5]: 0.015 µg/mL (≈ 0.0314 µM); MIC [6]: 0.03 µg/mL (≈ 0.0628 µM); MIC [7]: 0.015 µg/mL (≈ 0.0314 µM); IC50 [15]: > 30 µM; MIC [8]: 0.06 µg/mL (≈ 0.126 µM); cytotoxicity at 48 h, 50 µM [16]: 38%; MIC [17]: 1 µg/mL (≈ 2.09 µM); MIC [18]: ≤ 0.015 µg/mL; cytotoxicity at 48 h, 10 µM [19]: 3.61%; MIC [20]: 1 µg/mL (≈ 2.09 µM); IC50 [21]: 20.9 µM
CNc1cc(F)cc2c(O)c(C(=O)Nc3ccc(C(=O)O)cc3CN3CCCCC3)c(=O)[nH]c12.O=C(O)C(F)(F)F |  |  |  |  | 8 |  |  | 7.53 | 4930 | ≤ 0.015 | MIC [2]: 0.5 µg/mL; MIC [14]: 1 µg/mL; MIC [5]: 0.12 µg/mL; MIC [8]: 0.5 µg/mL; MIC [18]: 0.12 µg/mL
CC(=O)NC[C@H]1CN(c2ccc(N3CCOCC3)c(F)c2)C(=O)O1 [LINEZOLID] |  |  | 4 (≈ 11.9 µM) | 4 (≈ 11.9 µM) |  | 4 (≈ 11.9 µM) | 4 (≈ 11.9 µM) |  |  |  | 
CO/N=C(\C(=O)N[C@@H]1C(=O)N2C(C(=O)O)=C(CSc3nc(=O)c(O)nn3C)CS[C@H]12)c1csc(N)n1 [CEFTRIAXONE] | 1 (≈ 1.8 µM) | 4 (≈ 7.21 µM) |  |  |  |  |  |  |  |  | MIC [22]: 1 µg/mL (≈ 1.8 µM); MIC [23]: 64 µg/mL (≈ 115 µM); MIC [24]: 0.5 µg/mL (≈ 0.902 µM); MIC [25]: ≤ 0.12 µg/mL; MIC [26]: 0.5 µg/mL (≈ 0.902 µM)
CCC[C@@H]1C[C@@H](C(=O)N[C@@H]([C@H]2O[C@H](SC)[C@H](O)[C@@H](O)[C@H]2O)[C@H](C)Cl)N(C)C1 [CLINDAMYCIN] |  |  |  |  |  |  |  |  |  |  | MIC [22]: 0.03 µg/mL (≈ 0.0706 µM); MIC [23]: 1 µg/mL (≈ 2.35 µM); MIC [24]: 0.25 µg/mL (≈ 0.588 µM); MIC [27]: 8 µg/mL (≈ 18.8 µM); MIC [25]: ≤ 0.015 µg/mL
CNc1cc(F)cc2cc(C(=O)Nc3ccc(C(=O)O)cc3CN(C)C3CC3)c(=O)[nH]c12 |  |  |  |  | > 8 |  |  | 0.6 | 771 | ≤ 0.03 | MIC [11]: > 8 µg/mL
